In patent US20240238237A1, “CONJUGATED LINOLEIC ACID SUPPLEMENTATION FOR DISEASE TREATMENT” (VIRGINIA TECH INTELLECTUAL PROPERTIES, INC., priority 2021, published 2024):
Entries after “also recorded” stand apart in the source; their conditions may differ.

How the values were obtained:
[1] = test system: liver of WT, PWS and PWS-KO mice; test: Liver histology (H&E); assay type: in vivo, mouse
Protocol: Tissues were isolated immediately following euthanasia by CO2 asphyxiation and placed into 4% paraformaldehyde, overnight, with rocking at 4° C. The tissues were then rinsed in 70% ethanol and stored in 70% ethanol at 4° C. until processing. The Virginia Tech Veterinary Teaching Hospital at the Virginia-Maryland College of Veterinary Medicine processed the tissues for histology and stained with hematoxylin-eosin stain for microscopy. Representative samples were visualized using a 40× ocular on a Nikon Eclipse 50i micro-scope and captured using an Olympus Q-color3 camera.

[2] = test system: N2KO (Nhlh2 deletion) and WT mice; test: Body weight, body fat and lean mass in N2KO mice, Example 3; assay type: in vivo, mouse
Protocol: In males, incidence of HH is as high as one in 4000, with incidence in females being about 2-5 times lower. It was previously shown that mice containing a mutation of Nhlh2, a neuronal basic-helix-loop-helix transcription factor show a failure of pubertal onset, adult-onset obesity and hypogonadism. These mice are termed N2KO mice. […] In this Example, N2KO and WT mice were treated with about 0.5% CLA for 12 weeks.

[3] = test system: hypothalamic gene expression; test: Hypothalamic RNA-seq and RT-QPCR; assay type: in vivo, mouse
Protocol: Fresh hypothalamus tissue was lysed in TRIzol® using a rotor stator homogenizer. TRIzol samples were frozen at −20° C. in microfuge tubes until purified (2 weeks to 5 months). […] Purified RNA was then DNAse-treated using TURBO DNA-free™ Kit (ThermoFisher #AM1907) according to manufacturer's instructions, diluted to 60 ng/μL in nuclease-free water, and stored at −80° C.
RNA sequencing and library preparation was performed by Virginia Tech's Genomics Sequencing Center facility at the Fralin Life Sciences Institute. […] The library was enriched by 14 cycles of PCR, validated using Agilent TapeStation, and quantitated by qPCR. Individually indexed cDNA libraries were pooled and sequenced on NextSeq 75 SR. The Illumina NextSeq Control Software v2.1.0.32 with Real Time Analysis RTA v2.4.11.0 was used to provide the management and execution of the NextSeq 500 and to generate binary base call (BCL) files. The BCL files were converted to FASTQ files, adapters trimmed, and demul-tiplexed using bcl2fastq Conversion Software v2.20. FASTQ files were aligned to mouse genome GRCm38.p6 using the Geneious RNA assembler 2 Jan. […] Raw read counts were quantified to gene and/or transcript annotations with loss of strand-specificity. Differential expression analysis across experimental conditions was performed using the DESeq2 plugin in Geneious Prime. Default settings for filtering low-expression mapped genetic features were used for the DESeq2 plugin. False discovery rate (FDR) was calculated using the Benjamini-Hochberg procedure with a threshold for significance of FDR <0.10. Additionally, raw read counts were used to quantify differential expression through edgeR and voom using the DEApp online webserver. Low-expression mapped genetic features were removed with log 2CPM <1 in 2 or more samples. The results from the three differential expression methodologies, DESeq2, edgeR, and voom, were compared using R and spreadsheet software such as Microsoft Excel. Differentially expressed genes were analyzed for gene-ontology enrichment with MouseMine.
Reactions of 10 μL were performed using 150 nM final primer concentration. […] A 90 ng measure of RNA was used per 10 μL reaction. Two to three technical replicates were performed. Control reactions for each sample (minus reverse-transcriptase and minus template controls) were used for quality control. […] Quality-control measures including melt-curve analysis, technical replicate analysis, etc., were analyzed by thermocycler software and by operator; any major errors were excluded from analysis when deemed appropriate by the quality-control software, and/or new samples and plates were run. Candidate reference genes for ddCT analysis were analyzed and mouse beta-actin was chosen as the reference gene control for all experiments.
The numbers of samples in statistical tests are described in respective figures. The 2ddCT method of relative quantification was used. Statistical significance tests were performed on respective ddCT values, from which Relative Quantification values were derived. A two-way ANOVA with Bonferroni correction was used for relative expression of RNA normalized to WT or control conditions.

[4] = test system: WT, PWS (Snord116m+/p−) and PWS-KO (Snord116m−/p−) mice; test: In vivo plantarflexor torque-frequency and fatigue assays; parameters: species or system mouse
Protocol: The procedures for in vivo muscle testing were recently published. Briefly, at the end of the study, following both running wheel and metabolism measurements, body weight was determined, and mice were anesthetized with isoflurane (VetOne Fluriso, Boise, ID, USA) and placed on the temperature-controlled platform (40° C.) of the contractile apparatus (ASI), as described. The right hindlimb was shaved, hair remover applied (Nair Hair Remover Lotion, Ewing, NJ, USA) for 30 s, cleaned with 2-inch×2-inch gauze and tap water, and swabbed with povidone-iodine (Betadine Solution Swabsticks, Stamford, CT, USA). The knee was clamped so the tibia was 90° to the femur. The foot at 90° to the tibia was secured with clear Transpore surgical tape ([…], St. Paul, MN, USA) to the foot pedal of the Aurora Scientific (ASI: Aurora, ON, Canada) dual-mode servomotor. The mouse tail was taped (M3, St. Paul, MN, USA) loosely to the platform to keep it clear of the foot pedal. In vivo plantarflexor torque-frequency and fatigue assays were determined as described in Hamm et al.. Dynamic Muscle Control (DMC) software controlled the timing and frequency of the stimulations and collection of torque. Peak torque for each muscle contraction was determined using ASI Dynamic Muscle Analysis (DMA) software. Due to the body mass and fat mass reduction of the CLA groups in this study, torque was normalized separately by body mass (g) and the final measure of lean body mass (g).
In vivo plantar-flexor torque-frequency and fatigue curves were analyzed using Graph-Pad Prism 9.2.0. A two-way ANOVA was performed with multiple comparisons across groups. For torque-frequency figures, a nonlinear model was fit using the sigmoidal curve with variable slope.

## conjugated linoleic acid [CLA]
[1]; PWS and PWS-KO
  Mice with liver steatosis on CLA diet, PWS and PWS-KO: ~50%
[1]; PWS-KO
  Liver steatosis, PWS-KO mice on CLA diet: four of seven
[1]; PWS, two of these mild
  Liver steatosis, PWS mice on CLA diet: five of eight
[1]; WT
  Liver steatosis, WT mice on CLA diet: all liver sections
  Mice with liver steatosis on CLA diet, WT: 100%
[2]; 12 weeks CLA
  Lean mass, N2KO study: significantly improved
[2]; about 0.5% CLA for 12 weeks
  Body fat, N2KO mice: reduced; also recorded: decreased body fat; also recorded: significant reduction
  Body weight, N2KO mice: reduced body weight; also recorded: improved body weight; also recorded: significant reduction
[3]; QPCR, p=0.01
  Chmp1b mRNA, verification QPCR: increase was maintained
[3]; QPCR, p=0.22
  Retreg2 mRNA, validation QPCR: not significant
[3]; RNA-seq
  Genes up-regulated by CLA diet: 135 genes
[3]; RNA-seq, CLA diet treatment on PWS mice
  Retreg2 mRNA reduction: 0.89 fold
[3]; RNA-seq, WT and PWS hypothalamus
  Differentially expressed genes between control diet and CLA diets: 431 genes
[3]; RNA-seq, both genotypes
  Chmp1b mRNA increase with CLA diet: 1.27 fold
[3]; RNA-seq, not confirmed by RT-QPCR
  Mael expression in PWS mice: rescued
[3]; WT only
  Gene Ontology enrichment, WT response to CLA diet: starvation, nutrient levels, and cellular stress were significantly enriched
[3]; all genotypes
  Gene Ontology enrichment, CLA vs control: significantly enriched processes related to ribosomal RNA processing, cellular metabolic processes, and aging, lethality, or survival processes
[4]; PWS CLA and PWS-KO CLA vs control diet counterparts
  Resistance to fatigue: lowered
[4]; PWS, normalized to lean body mass
  Plantarflexor torque output, PWS group: lowered torque output
[4]; WT and PWS mice on CLA diet vs most other genotypes and treatments
  Fatigue: greater fatigue
[4]; WT, regardless of normalization method
  Plantarflexor torque output, WT mice: increased torque output
[4]; any group, vs WT baseline
  Muscle function, overall: not detrimental to muscle function
